Laboratory results from US6814969B2, “Immunologically significant herpes simplex virus antigens and methods for using same” (University of Washington, priority 2001, dated 2004).

How the values were obtained:
Format in all cases: cell-based, human
[1] = test system: TCC BM.17; experiment: T-cell proliferation, TCC BM.17; conditions: VP16 1-492 at 1 μg/ml, β-gal-VP16 180-492 at 1:1,000, peptides at 1 μM
Protocol: (§1) Triplicate proliferation assay wells contained 10^4 cloned T-cells, 10^5 irradiated (3300 rad) PBMC or 2.5×10^4 irradiated (8000 rad) EBV-LCL as antigen presenting cells (APC), and antigen in 200 μl T-cell media (D. M. Koelle et al., 1997, Human. Immunol., 53:195-205) in 96-well U-bottom plates. When heat-killed bacteria were used as antigen, the equivalent of 10^5 cfu/well (prior to inactivation) was added and gentamicin (20 μg/ml) was included. After 72 hours, 1 μCi/well ^[3]H thymidine was added for 18 hours, cells were harvested, and incorporation of thymidine evaluated by liquid scintillation counting. Standard deviations were less than 10% of the mean values. Results are reported as mean cpm or as delta cpm=mean cpm for experimental antigen minus mean cpm for control antigen. Control antigen was mock-infected cell lysate for whole viral antigens and pUEX2-derived β-galactosidase for recombinant protein preparations. […]
(§2) Three epitopes within VP16, all HSV-2 type-specific were previously identified (K. R. Jerome et al., 1998, J. Virol., 72:436-441), and proliferative responses to full-length VP16 in bulk cultures of genital HSV-2 lesion-infiltrating lymphocytes from four of seven (57%) patients were detected (D. M. Koelle et al., 1998, J. Clin. Invest., 101:1500-09). […]

[2] = test system: TCC SB.17; experiment: T-cell proliferation, TCC SB.17; conditions: VP16 1-492 at 1 μg/ml, β-gal-VP16 180-492 at 1:1,000, peptides at 1 μM
Protocol: as §1, §2

[3] = test system: TCC BM.17; experiment: Cytolysis assay (4-hour 51Cr release), CD4 TCC BM.17; conditions: autologous EBV-LCL targets, HSV-2 infected or 1 μM peptide, E:T 20:1
Protocol: (§3) Cytolysis assays were performed in triplicate using 4-hour [^51]Cr release as described (D. M. Koelle et al., 1993, J. Clin. Invest., 91:961-968). […] W. Kwok et al., 1996,J. Exp. Med., 183:1253-1258). The effector to target ratio was 20:1. Spontaneous release was less than 28%.

[4] = test system: TCC SB.17; experiment: Cytolysis assay (4-hour 51Cr release), CD4 TCC SB.17; conditions: autologous EBV-LCL targets, HSV-2 infected or 1 μM peptide, E:T 20:1
Protocol: as §3

Substance: VP16 437-449: HSV-2 VP16 (UL48) peptide, amino acids 437-449 (ADALDDFDLEMLG; UniProt P68336 437-449, looked up, fragment)
- delta cpm [3H] thymidine incorporation compared to media [1]: 79,723 cpm
- delta cpm [3H] thymidine incorporation compared to media [2]: 36,442 cpm
- percent specific release [3]: 28.5%
- percent specific release [4]: 60.6%
